The text below walks through data of patent US20260263452A1, “ONCOLOGY COMBINATION THERAPY AND METHODS OF USE” (BeyondSpring Pharmaceuticals, Inc., priority 2023, published 2026).

The test concerns MDA-MB-231 human breast cancer. In words: MDA-MB-231 human breast cancer SubQ xenograft model in BALB/c nude mice. The class given is in vivo. The note with it: Day 38, abemaciclib 50 mg/kg PO QD, plinabulin 7.5 mg/kg IP BIW; for mean tumor volume: n=8 per group, vehicle control 1235±24 mm^3. As for the experimental part:
The anti-tumor activity of plinabulin as a single agent compared to co-administration with abemaciclib was evaluated in an MDA-MB-231 human breast cancer SubQ xenograft model in BALB/c nude mice. Plinabulin was provided as a 4 mg/mL solution in 40% Solutol, 60% Propylene Glycol. […] Abemaciclib was provided as a crystalline solid. Prior to dosing, an appropriate amount of abemaciclib solid was weighed out and dissolved in 1% hydroxyethyl cellulose in 25 mM phosphate buffer, pH=2, to a concentration of 5 mg/mL to deliver a dose of 50 mg/kg in a 10 mL/kg dosing volume. […] The vehicle control was dosed intraperitoneally at a 10 mL/kg dose volume. The MDA-MB-231 human breast tumor cell line was maintained in L-15 medium supplemented with 10% FBS at 37° C. in an atmosphere of 100% air. Cells were sub-cultured upon reaching about 90% confluence by trypsin-EDTA treatment. Cells in an exponential growth phase were harvested using a trypsin-EDTA mixture. Female BALB/c nude mice were received at 6-8 weeks of age. All mice were acclimated for 7 days prior to study initiation. The mice were housed in housed in polycarbonate cages and maintained under specific pathogen-free conditions. The mice were fed irradiated dry granule food and sterile drinking water was freely available. Mice were inoculated subcutaneously on the right flank with 0.1 mL of L-15 medium/Martigel (1:1) mixture containing a suspension of 1×10^7 cells/mouse of live MDA-MB-231 tumor cells. […] Twenty-eight days following inoculation, thirty-two mice with tumor sizes of 101-124 mm^3 were randomized into four groups of eight mice, each with a mean tumor size of 114 mm^3. Tumor volumes and body weights were recorded when the mice were randomized and were taken twice weekly thereafter. Clinical observations were made daily. Dosing was performed via intraperitoneal injection for vehicle control and plinabulin and administered via oral gavage for abemaciclib as described below in Table 1. Plinabulin was administered one hour post dose of abemaciclib on combined dosing days. [table] […] All mice are included in the TGI calculations. [formula] All statistical analyses in the xenograft study are performed with GraphPad Prism software. p≤0.05 was considered statistically significant. […] A two-tailed Student's t-test with Welch's correction was also used to verify any differences between each group and the vehicle control, as well as single agents and their respective combination groups.

`CCN1CCN(Cc2ccc(Nc3ncc(F)c(-c4cc(F)c5nc(C)n(C(C)C)c5c4)n3)nc2)CC1` [abemaciclib]: the “TGI (tumor growth inhibition) compared to the Vehicle Control group” value stood at 59% and the mean tumor volume is reported as 572±101 mm^3.
As for `CC(C)(C)c1[nH]cnc1/C=c1\[nH]c(=O)/c(=C/c2ccccc2)[nH]c1=O` [plinabulin, (3Z,6Z)-3-benzylidene-6-{[5-(2-methyl-2-propanyl)-1H-imidazol-4-yl]methylene}-2,5-piperazinedione], the “TGI (tumor growth inhibition) compared to the Vehicle Control group” value was 26% and the mean tumor volume turned out to be 942±114 mm^3.
